Read-outs that look alike come from different tables or passages of the source. One block for each molecule: values may come before it.
Tests used:
p53 and p21 = p53 and p21 protein levels in HCT116 cells; type: cell-based, human
Source text: Inhibition of 60S ribosome biogenesis is known to induce the stability and upregulation of p53, which could serve as a potential pharmacodynamics marker for MM017 in HCT116 cells. […] We used PRISM (Broad Institute) to evaluate the selectivity of MM017 across 902 cancer cell lines and then correlated this selectivity to 1,215 clinical and pre-clinical compounds in the PRISM database. […] These observations indicate that oxaliplatin and carmofur, like MM017, target ribosome biogenesis.

HCT116 cells = assay: Cell viability assay (CellTiter-Glo, 72 hours) in HCT116 human colorectal cancer cells; type: cell-based
Summary of the method: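 Ten-point IC50 came from an asymmetric five-parameter fit of luminescence corrected to vehicle wells. ATP content was measured by CellTiter-Glo 72 h after dosing at 37 °C. Cells were seeded at 2,000/well the day before, with 0.5% DMSO in all wells.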

NVL = molecular target: T1, NVL (Homo sapiens, UniProt O15381); assay: Photo-crosslinking, affinity purification and probe displacement of NVL in cells; type: binding; parameters: endogenous in cells; conditions: NVL-FLAG knock-in cell line, increasing doses
T1 sequence (O15381 1-856): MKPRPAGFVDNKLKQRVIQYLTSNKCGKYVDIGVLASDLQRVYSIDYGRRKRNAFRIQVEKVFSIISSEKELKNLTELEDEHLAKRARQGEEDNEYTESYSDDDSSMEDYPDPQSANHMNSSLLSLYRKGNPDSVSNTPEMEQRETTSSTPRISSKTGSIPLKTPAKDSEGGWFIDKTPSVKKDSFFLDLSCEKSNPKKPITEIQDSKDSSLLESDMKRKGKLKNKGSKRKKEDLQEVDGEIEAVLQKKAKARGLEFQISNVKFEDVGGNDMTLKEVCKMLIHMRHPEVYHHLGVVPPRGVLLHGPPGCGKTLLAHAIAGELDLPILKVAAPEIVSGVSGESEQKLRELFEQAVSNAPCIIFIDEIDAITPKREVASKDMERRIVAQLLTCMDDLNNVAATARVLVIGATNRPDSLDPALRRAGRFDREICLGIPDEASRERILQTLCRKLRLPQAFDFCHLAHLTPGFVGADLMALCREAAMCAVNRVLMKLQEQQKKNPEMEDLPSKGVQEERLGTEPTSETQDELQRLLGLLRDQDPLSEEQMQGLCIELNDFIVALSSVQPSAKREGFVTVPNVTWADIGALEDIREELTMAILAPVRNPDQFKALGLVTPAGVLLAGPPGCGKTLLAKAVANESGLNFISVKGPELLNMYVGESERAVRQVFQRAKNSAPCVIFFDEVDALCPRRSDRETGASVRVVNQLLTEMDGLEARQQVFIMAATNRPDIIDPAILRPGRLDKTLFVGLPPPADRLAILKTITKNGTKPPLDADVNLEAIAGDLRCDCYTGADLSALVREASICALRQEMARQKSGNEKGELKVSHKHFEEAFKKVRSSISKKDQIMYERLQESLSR
Source text: To test whether NVL2 mutations prevent compound binding, we synthesized MM0514, a crosslinker derivative of MM017. MM0514 contains an aryl azide, and thus is capable of covalently modifying target proteins following exposure to UV light. MM0514 also contains an alkyne group providing a “handle” to purify bound proteins using click chemistry. Critically, MM0514 retains on-target activity to HCT116 cells since NVL2^R403W mutant cells are resistant. We crosslinked either parental or NVL2^R403W HCT116 cells to MM0514 and analyzed NVL2 binding. […] To characterize the binding site, we solved the cryo-EM structure of NVL2 with MM017. MM017 binds to a single site in the asymmetric hexamer near the D subunit. Consistent with our binding data, the mutations map near the binding site, including R403, which is mutated to tryptophan in a resistant clone and predicted to prevent binding of MM017 or related analogs. The cryo-EM structure of NVL2 with MM017 provides further evidence of target identification and also a tool for optimizing a bioavailable compound.
To assess whether MM017 binds directly to NVL in cells, we used a MM017 crosslinker (Probe compound (2), Table A) that is UV-activatable and contains an alkyne that can be coupled to biotin for affinity purification. […]

[1] = Table 3, HCT116, 72 hours, read-out: Activity
[2] = Table 8, analogs of scaffold drawing 43 defined by R^2, R^3, X/Y, W, read-out: Activity (IC50 class, cell viability assay)
[3] = Table 7, cell viability assay, CellTiter-Glo, 72 hours, scaffold drawing 42 with R^2, R^3, X/Y, Z, read-out: Activity
[4] = Homo sapiens, HCT-116, Table 5, HCT116, 72 hours, read-out: Activity
[5] = Table 6, HCT116, 72 hours, read-out: Activity
[6] = Table 9, HCT116, 72 hours, read-out: Activity
[7] = Table 4, HCT116, 72 hours, read-out: Activity

Compound: Cc1cnc(CNC(=O)c2c(=O)c3ccc(N4CCCN(C)CC4)nc3n3c2sc2ccccc23)cn1 [CX-5461, reference compound]
p53 levels in parental HCT116 cells (p53 and p21): dose-dependent increase in the levels of p53

IC50 (HCT116 cells; Homo sapiens, HCT-116, read-out: IC50s (cellular activity of MM017 derivatives)): 360 nM
displacement of MM017-probe from NVL (NVL): more effectively displaced MM017-probe
Compound: COCCN1C(=O)c2ccccc2Sc2cc(NC(=O)c3ccc(OC)cc3)ccc21 [compound 3]

IC50 (HCT116 cells; [1]): < 500 nM
Compound: CC#CCN1C(=O)c2ccccc2Sc2cc(NC(=O)Nc3ccc(OC)cc3)cnc21 [Table 3: —CH2CCMe; 4-MeOPh; CH/N]

IC50 (HCT116 cells; [2]): < 500 nM
Compound: O=C(Nc1ccc2c(c1)Sc1ccc(F)cc1C(=O)N2CC#CCl)C1CC2(CC(=NO)C2)C1 (centres unmarked)

IC50 (HCT116 cells; [3]): 1000 to 5000 nM
Compound: COCCN1C(=O)c2ccccc2Sc2cc(NC(=O)c3cccc(Cl)c3)ccc21 [—(CH2)2OMe; 3-ClPh; CH/CH; S]

IC50 (HCT116 cells; [2]): < 500 nM
Compound: O=C(Nc1cnc2c(c1)Sc1cc(Cl)ccc1C(=O)N2CC#CCl)C1CC1CO (stereo not drawn) [—CH2CCCl; trans-2-HOCH2-cPr; CCl/CH; N]

IC50 (HCT116 cells; [2]): < 500 nM
Compound: CO[C@H]1C[C@@H](C(=O)Nc2ccc3c(c2)Sc2ccc(F)cc2C(=O)N3CC#CCl)C1 [—CH2CCCl; cis-3-MeOcBu; CH/CF; CH]

IC50 (HCT116 cells; [3]): < 500 nM
Compound: C#CCOCCN1C(=O)c2ccc(F)cc2Sc2cc(NC(=O)c3ccc4scnc4c3)ccc21

IC50 (HCT116 cells; [3]): 500 to 1000 nM
Compound: COCCN1C(=O)c2ccccc2Sc2cc(NC(=O)c3ccc(OC)c(F)c3)ccc21 [—(CH2)2OMe; 3-F,4MeOPh; CH/CH; S]

IC50 (HCT116 cells; Table 5, HCT116, 72 hours, read-out: Activity): < 500 nM
Compound: CC#CCN1C(=O)c2ccccc2Sc2cc(Nc3ncc(C)cc3F)cnc21

IC50 (HCT116 cells; [2]): < 500 nM
Compound: C#CCN1C(=O)c2ccc(Cl)cc2Sc2cc(NC(=O)C3CC4(CC(=NO)C4)C3)cnc21 (centres unmarked)

IC50 (HCT116 cells; [4]): < 500 nM
Compound: CC#CCN1C(=O)c2ccc(F)cc2Sc2cc(Nc3ncccc3C#N)ccc21 [2-((10-(But-2-yn-1-yl)-3-fluoro-11-oxo-10,11-dihydrodibenzo[b,f][1,4]thiazepin-7-yl)amino) nicotinonitrile]

IC50 (HCT116 cells; [5]): < 500 nM
Compound: CC#CCN1C(=O)c2ccccc2Cc2cc(NC3CC(CO)C3)ccc21 (centres unmarked)

IC50 (HCT116 cells; [3]): 1000 to 5000 nM
Compound: COCCN1C(=O)c2ccccc2Sc2cc(NC(=O)c3ccc(OC(F)F)c(F)c3)ccc21 [—(CH2)2OMe; 3-F,4-F2HCOPh; CH/CH; S]

IC50 (HCT116 cells; [3]): 1000 to 5000 nM
Compound: COCCN1C(=O)c2ccccc2Sc2cc(NC(=O)c3ccc(C(F)(F)F)cc3)ccc21 [—(CH2)2OMe; 4-CF3Ph; CH/CH; S]

IC50 (HCT116 cells; [6]): < 500 nM
Compound: CC#CCN1C(=O)c2ccccc2C(C#N)c2cc(NC(=O)[C@H]3C[C@H](OC)C3)ccc21 (stereo partly drawn) [Table 9: —CH2CCMe; trans-3-MeOcBu; CHCN]

IC50 (HCT116 cells; [2]): < 500 nM
Compound: CC#CCN1C(=O)c2ccc(Cl)cc2Sc2cc(NC(=O)C34CC(OC)(C3)C4)cnc21

IC50 (HCT116 cells; [1]): < 500 nM
Compound: CC#CCN1C(=O)c2ccccc2Sc2cc(NC(=O)N[C@H]3C[C@@H](O)C3)ccc21 [Table 3: —CH2CCMe; cis-3-OH-cBu; CH/CH]

IC50 (HCT116 cells; [7]): < 500 nM
Compound: CC#CCN1C(=O)c2ccccc2Sc2cc(NC(=S)NC3COC3)cnc21 [Table 4: —CH2CCMe; oxetan-3-yl; N]

IC50 (HCT116 cells; [3]): < 500 nM
Compound: COCCN1C(=O)c2ccccc2Sc2cc(NC(=O)c3ccc4ocnc4c3)ccc21

IC50 (HCT116 cells; [6]): < 500 nM
Compound: CC#CCN1C(=O)c2ccccc2C(C)(O)c2cc(NC(=O)c3ccc(OC)nc3)ccc21 (centres unmarked)

IC50 (HCT116 cells; [1]): < 500 nM
Compound: CC#CCN1C(=O)c2ccccc2Sc2cc(NC(=O)Nc3ccc4scnc4c3)cnc21

IC50 (HCT116 cells; [3]): 1000 to 5000 nM
Compound: COCCN1C(=O)c2ccccc2Sc2cc(NC(=O)c3ccncn3)ccc21 [—(CH2)2OMe; pyrimidin-4-yl; CH/CH; S]

IC50 (HCT116 cells; Table 2, HCT116, 72 hours, read-out: Activity): < 500 nM
Compound: CC#CCN1C(=O)c2ccccc2Sc2cc(NC(=S)N3CCCCC3)ccc21

IC50 (HCT116 cells; [2]): < 500 nM
Compound: CC#CCN1C(=O)c2cc(F)ccc2Sc2cc(NC(=O)CCCOC)ccc21 [—CH2CCMe; (CH2)3OMe; CH/CF; CH]

IC50 (HCT116 cells; [4]): < 500 nM
Compound: CC#CCN1C(=O)c2ccc(C#N)cc2Sc2cc(Nc3nc(C)cnc3C)ccc21 [10-(But-2-yn-1-yl)-7-((3,6-dimethylpyrazin-2-yl)amino)-11-oxo-10,11-dihydrodibenzo[b,f][1,4]thiazepine-3-carbonitrile]

IC50 (HCT116 cells; [7]): < 500 nM
Compound: CC#CCN1C(=O)c2ccccc2Sc2cc(NC(=S)N[C@H]3C[C@H](O)C3)ccc21 [Table 4: —CH2CCMe; trans-3-OH-cBu; CH]

IC50 (HCT116 cells; [2]): < 500 nM
Compound: CO[C@H]1C[C@H](C(=O)Nc2ccc3c(c2)Sc2cc(Cl)ccc2C(=O)N3CC#CCl)C1 [—CH2CCCl; trans-3-MeOcBu; CCI/CH; CH]

IC50 (HCT116 cells; [5]): < 500 nM
Compound: CC#CCN1C(=O)c2ccccc2Cc2cc(NC3CC(COC)C3)ccc21 (centres unmarked)

IC50 (HCT116 cells; [4]): 500 to 1000 nM
Compound: CCC/C=C/CN1C(=O)c2ccccc2Sc2cc(Nc3cc(C)ccn3)ccc21 [(E)-10-(Hex-2-en-1-yl)-7-((4-methylpyridin-2-yl)amino)dibenzo[b,f][1,4]thiazepin-11 (10H)-one]

IC50 (HCT116 cells; [3]): 1000 to 5000 nM
Compound: COCCN1C(=O)c2ccccc2Sc2cc(NC(=O)c3cc(C)oc3C)ccc21 [—(CH2)2OMe; 2,5-Me2-furan-3-yl; CH/CH; S]

From patent US20260097047A1, “Small molecule inhibitors of the ribosome biogenesis factor NVL2” (Board of Regents, The University of Texas System, priority 2023, published 2026)
